Measurements reported in paper PMC10385162 (Viruses, 2023).
Values joined by “and” are separate entries in the source; they are usually repeats but may differ in a detail not shown here. Equal entries are not always repeated. Where two headings read alike, the source gives them in different places.

What was measured:
[1] = molecular target: HIV-1 reverse transcriptase (RT)-associated RNase H (Human immunodeficiency virus type 1 group M subtype B, UniProt P03366); assay: HIV-1 RT-associated RNase H inhibition assay; type: biochemical; settings: for IC50 / IC50 HIV-1 RNase H: concentration required to reduce HIV-1 RT-associated RNase H activity by 50%, mean of three independent experiments ± SD; for Percentage of residual enzymatic activity at the highest concentration tested: HIV-1 RNase H
[2] = molecular target: SARS-CoV-2 nsp14/nsp10 ExoN (Severe acute respiratory syndrome coronavirus 2, UniProt P0DTD1); assay: SARS-CoV-2 nsp14 exonuclease (ExoN) activity assay, HPLC, RNA22 substrate; type: biochemical; settings: for inhibition at 100 µM: read-out: Inhibition of ExoN activity
[3] = molecular target: full-length SARS-CoV-2 nsp14 MTase (Severe acute respiratory syndrome coronavirus 2, UniProt P0DTD1); assay: SARS-CoV-2 nsp14 N7-methyltransferase activity assay; type: biochemical; settings: absence vs presence of inhibitor; GpppA substrate, [3H]-SAM
[4] = system: SARS-CoV-2 WA1/2020 strain; type: cell-based
SARS-CoV-2 WA1/2020 = assay: Plaque reduction assay in Vero E6 ACE2 cells; type: cell-based; settings: for EC50 fold higher compared to 1c: plaque reduction assay

## O=C(N/N=C/c1ccc(O)c([N+](=O)[O-])c1)c1cc2ccccc2cc1O [1a, (E)-N’-(4-Hydroxy-3-nitrobenzylidene)-3-hydroxy-2-naphthohydrazide]
[1]; read-out: IC50 HIV-1 RNase H
  IC50: 69.6 ± 8.46 µM

## COc1cc(/C=N/NC(=O)c2cc3ccccc3cc2O)cc([N+](=O)[O-])c1O [1b, (E)-N′-(4-Hydroxy-5-methoxy-3-nitrobenzylidene)-3-hydroxy-2-naphthohydrazide]
[1]; read-out: IC50 HIV-1 RNase H
  IC50: 7 to 8 µM and 7.16 µM

## O=C(N/N=C/c1cc(O)c(O)c([N+](=O)[O-])c1)c1cc2ccccc2cc1O [1c, (E)-N′-(3,4-Dihydroxy-5-nitrobenzylidene)-3-hydroxy-2-naphthohydrazide]
[1]; IC50 HIV-1 RNase H
  IC50: 0.57 ± 0.04 µM
[2]; RNA22 substrate, HPLC
  IC50: 2.2 µM
[2]; at 100 µM
  Inhibition of ExoN activity: complete inhibition
[3]
  Effect on nsp14 MTase activity (tritium incorporation): no significant differences
[4]; 12.5 µM, A549 ACE2+ cells, MOI 0.05
  Effect on virus titers: no measurable effect
[4]; 25 µM, 24 h post-infection
  Reduction in virus titers: 6.4 fold
[4]; 25 µM, 48 h post-infection
  Reduction in virus titers: 7.8 fold
[4]; 50 µM, 24 h post-infection
  Reduction in virus titers: 78.5 fold
[4]; 50 µM, 48 h post-infection
  Reduction in virus titers: 48.9 fold
SARS-CoV-2 WA1/2020; concentration required to reduce plaque number by 50%, 3 d, mean and SD of three independent experiments, read-out: EC50 anti-SARS-CoV-2 activity by plaque reduction assay
  EC50: 10.23 ± 0.01 µM

## O=C(N/N=C/c1cc(O)ccc1O)c1cc2ccccc2cc1O [1d]
[1]; read-out: IC50 HIV-1 RNase H
  IC50: 35.9 ± 8.6 µM

## COc1ccc(/C=N/NC(=O)c2cc3ccccc3cc2O)c(O)c1O [1e, (E)-N’-(2,3-Dihydroxy-4-methoxybenzylidene)-3-hydroxy-2-naphthohydrazide]
[1]; read-out: IC50 HIV-1 RNase H
  IC50: 1.02 ± 0.15 µM

## O=C(N/N=C/c1ccc(O)c(O)c1O)c1cc2ccccc2cc1O [1f]
[1]; read-out: IC50 HIV-1 RNase H
  IC50: 0.93 ± 0.24 µM

## COc1ccc(/C=N/NC(=O)c2cc3ccccc3cc2O)cc1O [1g]
[1]
  Percentage of residual enzymatic activity at the highest concentration tested: 84%
[1]; read-out: IC50 HIV-1 RNase H
  IC50: > 100 µM

## O=C(N/N=C/c1ccc(O)cc1O)c1cc2ccccc2cc1O [1h]
[1]; read-out: IC50 HIV-1 RNase H
  IC50: 36.4 ± 10.5 µM

## CN(C)c1ccc(/C=N/NC(=O)c2cc3ccccc3cc2O)cc1 [1i]
[1]; read-out: IC50 HIV-1 RNase H
  IC50: 27.5 ± 2.65 µM

## CC(=O)Nc1ccc(/C=N/NC(=O)c2cc3ccccc3cc2O)cc1 [1j]
[1]
  Percentage of residual enzymatic activity at the highest concentration tested: 91%
  IC50 HIV-1 RNase H: inactive
[1]; read-out: IC50 HIV-1 RNase H
  IC50: > 100 µM

## CCN(CC)c1ccc(/C=N/NC(=O)c2cc3ccccc3cc2O)cc1 [1k]
[1]; read-out: IC50 HIV-1 RNase H
  IC50: 7 to 8 µM and 7.94 µM

## CN1CCN(c2ccc(/C=N/NC(=O)c3cc4ccccc4cc3O)cc2)CC1 [1l, (E)-N’-[4-(N-Methylpiperazinyl)benzylidene]-3-hydroxy-2-naphthohydrazide]
[1]
  Percentage of residual enzymatic activity at the highest concentration tested: 70%
  IC50 HIV-1 RNase H: inactive
[1]; read-out: IC50 HIV-1 RNase H
  IC50: > 100 µM
other
  melting point: 256 to 257 °C

## O=C(N/N=C/c1cc(O)c(O)c([N+](=O)[O-])c1)c1ccccc1O [2a, (E)-N′-(3,4-Dihydroxy-5-nitrobenzylidene)-2-hydroxybenzohydrazide]
[1]; IC50 HIV-1 RNase H
  IC50: 14 ± 0.97 µM
[2]
  inhibition at 100 µM: ~65%
SARS-CoV-2 WA1/2020
  EC50 fold higher compared to 1c: 4.3 fold
other
  melting point: 275 °C (dec.)

## O=C(N/N=C/c1cc(O)c(O)c([N+](=O)[O-])c1)c1cccc(F)c1 [2b, (E)-N′-(3,4-Dihydroxy-5-nitrobenzylidene)-3-fluorobenzohydrazide]
[1]; IC50 HIV-1 RNase H
  IC50: 15.2 ± 1.35 µM
[2]
  inhibition at 100 µM: ~53%
SARS-CoV-2 WA1/2020
  EC50 fold higher compared to 1c: 3.4 fold
other
  melting point: 251 to 252 °C (dec.)

## O=C(N/N=C/c1cc(O)c(O)c([N+](=O)[O-])c1)c1cccnc1 [2c, (E)-N′-(3,4-Dihydroxy-5-nitrobenzylidene)-nicotinoylhydrazide]
[1]; IC50 HIV-1 RNase H
  IC50: 24.7 ± 3.89 µM
[2]
  inhibition at 100 µM: ~37%
SARS-CoV-2 WA1/2020; concentration required to reduce plaque number by 50%, 3 d, mean and SD of three independent experiments
  EC50 anti-SARS-CoV-2 activity by plaque reduction assay: inactive
other
  melting point: 250 to 251 °C (dec.)

## O=C(N/N=C/c1ccc(O)c(O)c1)c1cc2ccccc2cc1O [Dynasore, (E)-N′-(3,4-dihydroxybenzylidene)-3-hydroxy-2-naphthohydrazide, reference compound]
[1]; read-out: IC50 HIV-1 RNase H
  IC50: 3.1 ± 0.52 µM

## CCOC(=O)C(=O)CC(=O)/C=C/c1cccn1Cc1ccc(F)cc1 [RDS1643, reference compound]
[1]; read-out: IC50 HIV-1 RNase H
  IC50: 10.8 ± 5.2 µM
